Results published in paper PMC9986241 (Signal Transduction and Targeted Therapy, 2023).

Experiments:
Experiment in all cases: KinaseProfiler enzyme profiling
Type in all cases: biochemical
[1] = molecular target: T1, CDK7/cyclinH(h) (Homo sapiens, UniProt P50613)
T1 construct: purchased Eurofins KinaseProfiler
Procedure, shortened: (§1)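 Single-point in vitro screen: erianin 100 nM, 70-kinase panel, n = 2.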

[2] = molecular target: T2, HIPK2(h) (Homo sapiens, UniProt Q9H2X6)
T2 construct: purchased Eurofins KinaseProfiler
Procedure, shortened: as §1

[3] = molecular target: T3, Flt4(h) (Homo sapiens, UniProt P35916)
T3 construct: purchased Eurofins KinaseProfiler
Procedure, shortened: as §1

[4] = molecular target: T4, CDK5/p35(h) (Homo sapiens, UniProt Q00535)
T4 construct: purchased Eurofins KinaseProfiler
Procedure, shortened: as §1

[5] = molecular target: T5, CK1γ2(h) (Homo sapiens, UniProt P78368)
T5 construct: purchased Eurofins KinaseProfiler
T5 sequence (P78368 whole entry): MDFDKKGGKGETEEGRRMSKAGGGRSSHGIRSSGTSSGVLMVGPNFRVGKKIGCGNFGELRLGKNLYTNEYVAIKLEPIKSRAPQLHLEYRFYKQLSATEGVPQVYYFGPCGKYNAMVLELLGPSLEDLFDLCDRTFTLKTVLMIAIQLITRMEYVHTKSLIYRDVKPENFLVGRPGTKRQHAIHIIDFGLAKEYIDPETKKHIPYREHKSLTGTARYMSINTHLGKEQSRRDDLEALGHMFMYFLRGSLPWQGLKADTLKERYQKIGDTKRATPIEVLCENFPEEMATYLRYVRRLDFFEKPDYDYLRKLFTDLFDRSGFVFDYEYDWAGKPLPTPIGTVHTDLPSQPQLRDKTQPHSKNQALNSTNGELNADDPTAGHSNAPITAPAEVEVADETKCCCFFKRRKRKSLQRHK
Procedure, shortened: as §1

[6] = molecular target: T6, BRK(h) (Homo sapiens, UniProt Q13882)
T6 construct: purchased Eurofins KinaseProfiler
Procedure, shortened: as §1

[7] = molecular target: T7, DAPK1(h) (Homo sapiens, UniProt P53355)
T7 construct: purchased Eurofins KinaseProfiler
Procedure, shortened: as §1

[8] = molecular target: T8, Axl(h) (Homo sapiens, UniProt P30530)
T8 construct: purchased Eurofins KinaseProfiler
Procedure, shortened: as §1

[9] = molecular target: T9, LKB1(h) (Homo sapiens, UniProt Q15831)
T9 construct: purchased Eurofins KinaseProfiler
Procedure, shortened: as §1

[10] = molecular target: T10, CK1γ1(h) (Homo sapiens, UniProt Q9HCP0)
T10 construct: purchased Eurofins KinaseProfiler
Procedure, shortened: as §1

[11] = molecular target: T11, DCAMKL3(h) (Homo sapiens, UniProt Q9C098)
T11 construct: purchased Eurofins KinaseProfiler
Procedure, shortened: as §1

[12] = molecular target: T12, FGFR3(h) (Homo sapiens, UniProt P22607)
T12 construct: purchased Eurofins KinaseProfiler
T12 sequence (P22607 23-806): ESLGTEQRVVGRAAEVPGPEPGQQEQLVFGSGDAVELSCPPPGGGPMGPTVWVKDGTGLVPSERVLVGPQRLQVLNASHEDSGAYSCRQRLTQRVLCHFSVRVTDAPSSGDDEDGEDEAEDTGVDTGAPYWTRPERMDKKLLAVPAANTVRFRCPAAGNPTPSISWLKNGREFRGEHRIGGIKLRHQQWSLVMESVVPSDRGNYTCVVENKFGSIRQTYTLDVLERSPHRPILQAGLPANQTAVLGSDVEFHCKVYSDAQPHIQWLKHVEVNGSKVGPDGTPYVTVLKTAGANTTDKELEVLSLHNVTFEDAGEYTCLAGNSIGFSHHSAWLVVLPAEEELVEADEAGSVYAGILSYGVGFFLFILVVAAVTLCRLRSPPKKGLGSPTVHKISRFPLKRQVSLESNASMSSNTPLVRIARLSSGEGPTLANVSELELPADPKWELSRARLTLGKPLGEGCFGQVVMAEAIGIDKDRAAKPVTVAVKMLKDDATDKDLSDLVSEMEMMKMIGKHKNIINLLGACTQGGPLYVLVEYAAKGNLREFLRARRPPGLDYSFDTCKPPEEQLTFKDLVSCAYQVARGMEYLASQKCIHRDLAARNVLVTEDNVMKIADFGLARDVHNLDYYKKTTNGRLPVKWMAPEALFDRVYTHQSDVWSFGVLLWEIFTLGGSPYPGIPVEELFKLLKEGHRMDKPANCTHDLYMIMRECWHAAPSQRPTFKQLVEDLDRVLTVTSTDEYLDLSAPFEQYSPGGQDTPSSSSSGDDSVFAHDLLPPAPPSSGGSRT
Procedure, shortened: as §1

[13] = molecular target: T13, cKit(h) (Homo sapiens, UniProt P10721)
T13 construct: purchased Eurofins KinaseProfiler
Procedure, shortened: as §1

[14] = molecular target: T14, CaMKIIβ(h) (Homo sapiens, UniProt Q13554)
T14 construct: purchased Eurofins KinaseProfiler
Procedure, shortened: as §1

[15] = molecular target: T15, CK2(h) (Homo sapiens, UniProt P68400)
T15 construct: purchased Eurofins KinaseProfiler
Procedure, shortened: as §1

[16] = molecular target: T16, DDR2(h) (Homo sapiens, UniProt Q16832)
T16 construct: purchased Eurofins KinaseProfiler
Procedure, shortened: as §1

[17] = molecular target: T17, HIPK3(h) (Homo sapiens, UniProt Q9H422)
T17 construct: purchased Eurofins KinaseProfiler
Procedure, shortened: as §1

[18] = molecular target: T18, Aurora-A(h) (Homo sapiens, UniProt O14965)
T18 construct: purchased Eurofins KinaseProfiler
Procedure, shortened: as §1

[19] = molecular target: T19, MKK7β(h) (Homo sapiens, UniProt O14733)
T19 construct: purchased Eurofins KinaseProfiler
Procedure, shortened: as §1

[20] = molecular target: T20, EphB1(h) (Homo sapiens, UniProt P54762); settings: 100 nM
T20 construct: purchased Eurofins KinaseProfiler
T20 sequence (P54762 18-984): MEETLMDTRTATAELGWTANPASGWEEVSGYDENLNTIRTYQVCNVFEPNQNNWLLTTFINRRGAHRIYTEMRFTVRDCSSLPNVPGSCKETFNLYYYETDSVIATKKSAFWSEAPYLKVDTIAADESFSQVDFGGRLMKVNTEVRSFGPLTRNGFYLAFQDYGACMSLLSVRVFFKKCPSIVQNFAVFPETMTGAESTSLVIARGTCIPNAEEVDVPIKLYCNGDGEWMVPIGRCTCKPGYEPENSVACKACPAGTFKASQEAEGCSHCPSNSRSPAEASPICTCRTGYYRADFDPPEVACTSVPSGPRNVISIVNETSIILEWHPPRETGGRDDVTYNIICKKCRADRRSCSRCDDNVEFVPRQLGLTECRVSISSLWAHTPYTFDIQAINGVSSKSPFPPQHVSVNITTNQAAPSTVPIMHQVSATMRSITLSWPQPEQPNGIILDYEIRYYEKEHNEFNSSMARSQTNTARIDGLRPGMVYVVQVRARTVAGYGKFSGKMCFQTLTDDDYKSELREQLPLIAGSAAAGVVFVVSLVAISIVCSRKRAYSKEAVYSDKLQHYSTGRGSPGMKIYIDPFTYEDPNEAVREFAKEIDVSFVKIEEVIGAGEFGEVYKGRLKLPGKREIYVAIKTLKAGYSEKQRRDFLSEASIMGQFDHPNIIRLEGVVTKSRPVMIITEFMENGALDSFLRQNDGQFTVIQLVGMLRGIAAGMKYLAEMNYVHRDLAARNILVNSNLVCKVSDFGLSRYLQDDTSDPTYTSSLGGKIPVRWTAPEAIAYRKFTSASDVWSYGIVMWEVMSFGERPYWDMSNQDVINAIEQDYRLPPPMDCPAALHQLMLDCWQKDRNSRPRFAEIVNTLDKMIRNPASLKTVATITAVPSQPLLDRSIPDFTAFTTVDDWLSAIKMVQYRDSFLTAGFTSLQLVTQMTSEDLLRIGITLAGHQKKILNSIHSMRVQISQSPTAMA
Procedure, shortened: as §1

[21] = molecular target: T21, A-Raf(h) (Homo sapiens, UniProt P10398); settings: 100 nM
T21 construct: purchased Eurofins KinaseProfiler
Procedure, shortened: as §1

[22] = molecular target: T22, CaMKIIδ(h) (Homo sapiens, UniProt Q13557); settings: 100 nM
T22 construct: purchased Eurofins KinaseProfiler
Procedure, shortened: as §1

[23] = molecular target: T23, TYK2(h) (Homo sapiens, UniProt P29597); settings: 100 nM
T23 construct: purchased Eurofins KinaseProfiler
Procedure, shortened: as §1

[24] = molecular target: T24, EphA4(h) (Homo sapiens, UniProt P54764); settings: 100 nM
T24 construct: purchased Eurofins KinaseProfiler
Procedure, shortened: as §1

[25] = molecular target: T25, Flt1(h) (Homo sapiens, UniProt P17948); settings: 100 nM
T25 construct: purchased Eurofins KinaseProfiler
Procedure, shortened: as §1

[26] = molecular target: T26, BTK(h) (Homo sapiens, UniProt Q06187); settings: 100 nM
T26 construct: purchased Eurofins KinaseProfiler
T26 sequence (Q06187 whole entry): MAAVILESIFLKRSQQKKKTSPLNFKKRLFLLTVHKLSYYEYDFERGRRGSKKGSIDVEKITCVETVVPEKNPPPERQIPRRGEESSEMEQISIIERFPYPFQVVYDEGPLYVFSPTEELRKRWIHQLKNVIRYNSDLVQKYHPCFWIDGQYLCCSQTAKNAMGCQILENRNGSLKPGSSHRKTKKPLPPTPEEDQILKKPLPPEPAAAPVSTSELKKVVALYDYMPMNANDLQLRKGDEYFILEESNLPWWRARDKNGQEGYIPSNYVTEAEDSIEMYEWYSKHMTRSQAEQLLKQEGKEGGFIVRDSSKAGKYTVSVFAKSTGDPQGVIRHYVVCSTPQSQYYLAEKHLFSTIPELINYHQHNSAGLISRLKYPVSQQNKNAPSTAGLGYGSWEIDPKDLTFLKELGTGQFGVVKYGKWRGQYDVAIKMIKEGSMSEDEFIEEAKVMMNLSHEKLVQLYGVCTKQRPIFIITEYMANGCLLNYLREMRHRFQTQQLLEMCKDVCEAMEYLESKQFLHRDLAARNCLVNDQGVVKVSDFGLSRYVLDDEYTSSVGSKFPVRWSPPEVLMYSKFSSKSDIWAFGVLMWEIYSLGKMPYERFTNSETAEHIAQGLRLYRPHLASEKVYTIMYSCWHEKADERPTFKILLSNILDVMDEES
Procedure, shortened: as §1

[27] = molecular target: T27, Pim-3(h) (Homo sapiens, UniProt Q86V86); settings: 100 nM
T27 construct: purchased Eurofins KinaseProfiler
Procedure, shortened: as §1

[28] = molecular target: T28, ZIPK(h) (Homo sapiens, UniProt O43293); settings: 100 nM
T28 construct: purchased Eurofins KinaseProfiler
Procedure, shortened: as §1

[29] = molecular target: T29, Pim-2(h) (Homo sapiens, UniProt Q9P1W9); settings: 100 nM
T29 construct: purchased Eurofins KinaseProfiler
Procedure, shortened: as §1

[30] = molecular target: T30, EphA5(h) (Homo sapiens, UniProt P54756); settings: 100 nM
T30 construct: purchased Eurofins KinaseProfiler
Procedure, shortened: as §1

[31] = molecular target: T31, Rsk2(h) (Homo sapiens, UniProt P51812)
T31 construct: purchased Eurofins KinaseProfiler
Procedure, shortened: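 In this commercial enzyme profiling, 70 kinases were assayed in vitro with erianin present at 100 nM. Results come from two repetitions.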

[32] = molecular target: T32, TAO1(h) (Homo sapiens, UniProt Q7L7X3)
T32 construct: purchased Eurofins KinaseProfiler
Procedure, shortened: as §1

[33] = molecular target: T33, TAO3(h) (Homo sapiens, UniProt Q9H2K8)
T33 construct: purchased Eurofins KinaseProfiler
Procedure, shortened: as §1

[34] = molecular target: T34, PAK5(h) (Homo sapiens, UniProt Q9P286)
T34 construct: purchased Eurofins KinaseProfiler
T34 sequence (Q9P286 whole entry): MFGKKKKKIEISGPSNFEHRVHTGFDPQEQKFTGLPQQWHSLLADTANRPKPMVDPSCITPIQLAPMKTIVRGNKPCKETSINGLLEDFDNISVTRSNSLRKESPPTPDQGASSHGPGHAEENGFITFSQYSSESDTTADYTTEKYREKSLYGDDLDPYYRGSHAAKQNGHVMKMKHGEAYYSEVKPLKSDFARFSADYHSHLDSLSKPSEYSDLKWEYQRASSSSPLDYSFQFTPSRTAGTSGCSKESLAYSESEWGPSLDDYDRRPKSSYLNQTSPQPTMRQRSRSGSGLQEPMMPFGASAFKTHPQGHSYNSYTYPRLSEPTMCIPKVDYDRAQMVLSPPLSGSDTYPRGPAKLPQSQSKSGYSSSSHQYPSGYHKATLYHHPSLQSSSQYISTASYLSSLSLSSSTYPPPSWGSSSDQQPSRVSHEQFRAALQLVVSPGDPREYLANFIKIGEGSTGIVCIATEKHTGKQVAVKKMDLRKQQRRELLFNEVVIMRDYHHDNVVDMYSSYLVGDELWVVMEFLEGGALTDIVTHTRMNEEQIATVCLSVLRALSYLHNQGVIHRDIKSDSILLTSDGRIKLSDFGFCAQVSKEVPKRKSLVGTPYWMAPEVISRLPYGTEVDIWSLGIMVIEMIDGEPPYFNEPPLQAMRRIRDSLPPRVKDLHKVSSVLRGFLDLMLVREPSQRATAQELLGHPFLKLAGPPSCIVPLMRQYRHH
Procedure, shortened: as §1

[35] = molecular target: T35, NEK7(h) (Homo sapiens, UniProt Q8TDX7)
T35 construct: purchased Eurofins KinaseProfiler
T35 sequence (Q8TDX7 whole entry): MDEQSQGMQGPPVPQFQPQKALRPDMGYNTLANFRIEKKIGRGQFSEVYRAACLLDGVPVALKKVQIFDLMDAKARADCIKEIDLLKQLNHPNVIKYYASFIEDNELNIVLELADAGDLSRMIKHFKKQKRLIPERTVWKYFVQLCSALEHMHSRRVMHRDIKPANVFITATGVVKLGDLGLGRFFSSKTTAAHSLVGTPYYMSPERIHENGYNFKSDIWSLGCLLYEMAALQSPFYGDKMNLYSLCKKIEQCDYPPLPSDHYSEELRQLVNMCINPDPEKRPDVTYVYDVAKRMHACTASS
Procedure, shortened: as §1

[36] = molecular target: T36, Lck(h) (Homo sapiens, UniProt P06239)
T36 construct: purchased Eurofins KinaseProfiler
Procedure, shortened: as §1

[37] = molecular target: T37, TAO2(h) (Homo sapiens, UniProt Q9UL54)
T37 construct: purchased Eurofins KinaseProfiler
Procedure, shortened: as §1

[38] = molecular target: T38, NEK6(h) (Homo sapiens, UniProt Q9HC98)
T38 construct: purchased Eurofins KinaseProfiler
Procedure, shortened: as §1

[39] = molecular target: T39, NEK1(h) (Homo sapiens, UniProt Q96PY6)
T39 construct: purchased Eurofins KinaseProfiler
Procedure, shortened: as §1

[40] = molecular target: T40, SAPK2a(h) (Homo sapiens, UniProt Q16539)
T40 construct: purchased Eurofins KinaseProfiler
Procedure, shortened: as §1

[41] = molecular target: T41, DMPK(h) (Homo sapiens, UniProt Q09013)
T41 construct: purchased Eurofins KinaseProfiler
T41 sequence (Q09013 whole entry): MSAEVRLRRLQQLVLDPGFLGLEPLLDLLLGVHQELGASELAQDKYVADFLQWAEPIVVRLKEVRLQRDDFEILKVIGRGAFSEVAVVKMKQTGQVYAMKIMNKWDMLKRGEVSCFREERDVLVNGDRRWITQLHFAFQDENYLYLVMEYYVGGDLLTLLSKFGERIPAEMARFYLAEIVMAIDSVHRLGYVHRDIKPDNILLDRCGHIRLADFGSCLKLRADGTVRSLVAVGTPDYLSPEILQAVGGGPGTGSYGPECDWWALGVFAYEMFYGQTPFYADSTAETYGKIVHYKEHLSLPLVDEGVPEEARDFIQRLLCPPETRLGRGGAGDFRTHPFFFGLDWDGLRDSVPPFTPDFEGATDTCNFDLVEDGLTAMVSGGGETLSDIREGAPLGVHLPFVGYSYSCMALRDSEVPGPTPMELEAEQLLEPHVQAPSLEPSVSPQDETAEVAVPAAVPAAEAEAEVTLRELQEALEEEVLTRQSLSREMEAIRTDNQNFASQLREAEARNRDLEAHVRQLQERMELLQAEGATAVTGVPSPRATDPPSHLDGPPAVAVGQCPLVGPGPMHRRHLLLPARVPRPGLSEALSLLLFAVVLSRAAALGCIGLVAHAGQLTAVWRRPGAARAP
Procedure, shortened: as §1

[42] = molecular target: T42, MST2(h) (Homo sapiens, UniProt Q13188)
T42 construct: purchased Eurofins KinaseProfiler
T42 sequence (Q13188 whole entry): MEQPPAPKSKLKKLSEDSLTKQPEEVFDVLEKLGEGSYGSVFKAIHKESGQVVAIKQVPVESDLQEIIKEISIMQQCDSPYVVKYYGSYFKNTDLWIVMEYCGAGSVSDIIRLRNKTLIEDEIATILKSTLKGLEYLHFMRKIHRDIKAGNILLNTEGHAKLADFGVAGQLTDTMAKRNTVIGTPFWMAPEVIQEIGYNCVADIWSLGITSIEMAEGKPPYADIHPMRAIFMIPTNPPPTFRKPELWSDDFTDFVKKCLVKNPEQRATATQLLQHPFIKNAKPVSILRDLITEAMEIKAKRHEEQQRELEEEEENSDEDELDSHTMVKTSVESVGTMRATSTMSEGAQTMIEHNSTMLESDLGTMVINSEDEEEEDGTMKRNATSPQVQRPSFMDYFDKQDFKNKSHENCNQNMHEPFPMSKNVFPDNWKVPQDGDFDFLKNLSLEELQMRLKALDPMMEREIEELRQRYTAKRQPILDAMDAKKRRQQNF
Procedure, shortened: as §1

Molecule `COc1cc2oc(-c3ccc(O)c(O)c3)cc(=O)c2c(O)c1OC` [Cirsiliol] has an activity at 10 µM [1] of 92%, an activity at 10 µM [2] of 100% and an activity at 10 µM [3] of 87%. It also gave an activity at 10 µM [4] of 99%, an activity at 10 µM [5] of 108% and an activity at 10 µM [6] of 105%. The activity at 10 µM [7] was 103%, the activity at 10 µM [8] was 97% and the activity at 10 µM [9] was 96%. The activity at 10 µM [10] was 103%, the activity at 10 µM [11] was 109% and the activity at 10 µM [12] was 98%. It also gave an activity at 10 µM [13] of 93%, an activity at 10 µM [14] of 104% and an activity at 10 µM [15] of 84%. For the same molecule, the activity at 10 µM [16] was 106%, the activity at 10 µM [17] was 106% and the activity at 10 µM [18] was 124%. It also gave an activity at 10 µM [19] of 95%.

With `COc1ccc(CCc2cc(OC)c(OC)c(OC)c2)cc1O` [Erianin] the activity at 0.1 µM [20] was 91%, the activity at 0.1 µM [21] was 109% and the activity at 0.1 µM [22] was 103%. It also gave an activity at 0.1 µM [23] of 100%, an activity at 0.1 µM [24] of 93% and an activity at 0.1 µM [25] of 117%. It also gave an activity at 0.1 µM [26] of 104%, an activity at 0.1 µM [27] of 91% and an activity at 0.1 µM [28] of 111%. It also gave an activity at 0.1 µM [29] of 103%, an activity at 0.1 µM [30] of 108% and an activity at 0.1 µM [31] of 106%.

`C=C1C(=O)[C@]23[C@H](O)[C@H]1CC[C@H]2[C@@]12CO[C@]3(O)[C@@H](O)[C@@H]1C(C)(C)CC[C@@H]2O` [Oridonin] gave an activity at 10 µM [32] of 64%, an activity at 10 µM [33] of 66% and an activity at 10 µM [34] of 98%. It also gave an activity at 10 µM [35] of 101%, an activity at 10 µM [36] of 89% and an activity at 10 µM [37] of 78%. It also gave an activity at 10 µM [38] of 99%, an activity at 10 µM [39] of 77% and an activity at 10 µM [40] of 141%. For the same molecule, the activity at 10 µM [41] was 104% and the activity at 10 µM [42] was 54%.
